Data on 8 molecules can be found in patent US7456210B2, “Benzyloxy derivatives” (Hoffmann-La Roche Inc., priority 2004, dated 2008).

This assay has as its target T1, human MAO-B (Homo sapiens, UniProt P27338).
T1 construct: expressed in transfected cells; host or cells: EBNA cells (transient transfection); cell membranes used
T1 sequence (P27338 1-520): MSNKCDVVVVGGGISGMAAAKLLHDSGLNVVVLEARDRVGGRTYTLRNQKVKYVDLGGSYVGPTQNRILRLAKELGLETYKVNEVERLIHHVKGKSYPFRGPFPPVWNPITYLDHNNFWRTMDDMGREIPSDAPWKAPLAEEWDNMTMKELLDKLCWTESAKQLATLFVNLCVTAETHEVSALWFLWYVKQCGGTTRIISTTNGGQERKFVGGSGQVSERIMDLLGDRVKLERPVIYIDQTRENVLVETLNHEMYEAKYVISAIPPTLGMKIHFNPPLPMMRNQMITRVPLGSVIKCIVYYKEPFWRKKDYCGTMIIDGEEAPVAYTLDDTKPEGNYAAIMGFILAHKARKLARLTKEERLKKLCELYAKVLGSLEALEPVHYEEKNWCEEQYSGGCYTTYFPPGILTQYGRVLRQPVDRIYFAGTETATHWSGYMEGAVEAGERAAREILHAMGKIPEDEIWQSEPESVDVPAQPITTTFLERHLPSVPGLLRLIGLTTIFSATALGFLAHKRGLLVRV
In words: MAO-B enzymatic activity, spectrophotometric Amplex Red assay on membranes of transfected EBNA cells. The class given is biochemical. The following applies: membranes of EBNA cells transfected with human MAO-B; substrate tyramine; 30 min preincubation at 37° C., pH 7.4. As to the method:
The cDNA's encoding human MAO-A and MAO-B were transiently transfected into EBNA cells using the procedure described by Schlaeger and Christensen [Cytotechnology 15:1-13 (1998)]. After transfection, cells were homogenised by means of a Polytron homogenizer in 20 mM Tris HCl buffer, pH 8.0, containing 0.5 mM EGTA and 0.5 mM phenylmethanesulfonyl fluoride. Cell membranes were obtained by centrifugation at 45,000×g and, after two rinsing step with 20 mM Tris HCl buffer, pH 8.0, containing 0.5 mM EGTA, membranes were eventually re-suspended in the above buffer and aliquots stored at −80° C. until use.
MAO-A and MAO-B enzymatic activity was assayed in 96-well-plates using a spectro-photometric assay adapted from the method described by Zhou and Panchuk-Voloshina [Analytical Biochemistry 253:169-174 (1997)]. Briefly, membrane aliquots were incubated in 0.1 M potassium phosphate buffer, pH 7.4, for 30 min at 37° C. with or without various concentrations of the compounds. After this period, the enzymatic reaction was started by the addition of the MAO substrate tyramine together with 1 U/ml horse-radish peroxidase (Roche Biochemicals) and 80 μM N-acetyl-3,7,-dihydroxyphenoxazine (Amplex Red, Molecular Probes). The samples were further incubated for 30 min at 37° C. in a final volume of 200 μl and absorbance was then determined at a wavelength of 570 nm using a SpectraMax plate reader (Molecular Devices). Background (non-specific) absorbance was determined in the presence of 10 μM clorgyline for MAO-A or 10 μM L-deprenyl for MAO-B.
IC50 values were determined from inhibition curves obtained using nine inhibitor concentrations in duplicate, by fitting data to a four parameter logistic equation using a computer program.
One may read the IC50 as the concentration needed to halve the response being measured. As to `O=C1C[C@@H](c2c[nH]cn2)CN1c1ccc(OCc2cccc(F)c2)cc1` [Example 9, (R)-1-[4-(3-Fluoro-benzyloxy)-phenyl]-4-(1H-imidazol-4-yl)-pyrrolidin-2-one], half-maximal inhibition (IC50) required 0.187 µM. This lies in the sub-micromolar range.

`CCOC(=O)c1nc([C@@H]2CC(=O)N(c3ccc(OCc4cccc(F)c4)cc3)C2)no1` [Example 5, 3-{(R)-1-[4-(3-Fluoro-benzyloxy)-phenyl]-5-oxo-pyrrolidin-3-yl}-[1,2,4]oxadiazole-5-carboxylic acid ethyl ester] displayed a concentration for half-maximal inhibition (IC50) of 0.043 µM. Against the preceding molecule, the IC50 is about 4.3-fold lower.

The molecule `CON(C)C(=O)[C@@H]1CC(=O)N(c2ccc(OCc3cccc(F)c3)cc2)C1` [Example 10, (R)-1-[4-(3-Fluoro-benzyloxy)-phenyl]-5-oxo-pyrrolidine-3-carboxylic acid methoxy-methyl-amide] showed an IC50 of 0.392 µM. Against the preceding molecule, the IC50 is about 9.1-fold higher. In turn, `Cc1nc([C@@H]2CC(=O)N(c3ccc(OCc4cccc(F)c4)cc3)C2)no1` [Example 4, (R)-1-[4-(3-Fluoro-benzyloxy)-phenyl]-4-(5-methyl-[1,2,4]oxadiazol-3-yl)-pyrrolidin-2-one] came in with an IC50 of 0.016 µM.

`N=C(NO)[C@@H]1CC(=O)N(c2ccc(OCc3cccc(F)c3)cc2)C1` [Example 3, (R)-1-[4-(3-Fluoro-benzyloxy)-phenyl]-N-hydroxy-5-oxo-pyrrolidine-3-carboxamidine] displayed an IC50 of 0.018 µM. Molecule `Cc1nc([C@@H]2CC(=O)N(c3ccc(OCc4cccc(F)c4)cc3)C2)cs1` [Example 8, (R)-1-[4-(3-Fluoro-benzyloxy)-phenyl]-4-(2-methyl-thiazol-4-yl)-pyrrolidin-2-one] displayed an IC50 of 0.387 µM. Molecule `NC(=O)c1nc([C@@H]2CC(=O)N(c3ccc(OCc4cccc(F)c4)cc3)C2)no1` [Example 6, 3-{(R)-1-[4-(3-Fluoro-benzyloxy)-phenyl]-5-oxo-pyrrolidin-3-yl}-[1,2,4]oxadiazole-5-carboxylic acid amide] yielded an IC50 of 0.429 µM. For `CC(=O)[C@@H]1CC(=O)N(c2ccc(OCc3cccc(F)c3)cc2)C1` [Example 11, (R)-4-Acetyl-1-[4-(3-fluoro-benzyloxy)-phenyl]-pyrrolidin-2-one], the IC50 was 0.011 µM. This IC50 lies about 39-fold lower than the previous one.
